Measured values from PMC3045627 (Journal of medicinal chemistry, 2010).
Read-outs that look alike come from different tables or passages of the source. Each block holds one compound with its values, some of them ahead of it.

Legend:
[1] = biological target: human farnesyltransferase (hFTase) (Homo sapiens, UniProt P49354+P49356); assay: In vitro hFTase inhibition: incorporation of [3H]FPP into recombinant H-Ras-CVLS; assay type: biochemical; conditions: for selectivity (ratio of GGTase-I to FTase IC50s): GGTase-I IC50 / hFTase IC50; for fold improvement in hFTase inhibitory activity relative to 1az: relative to parent 1az
[2] = test system: farnesylation of H-Ras in oncogenic H-Ras-transformed NIH3T3 cells; assay: Whole cell inhibition of farnesylation; assay type: cell-based; conditions: Mus musculus

- selectivity (ratio of GGTase-I to FTase IC50s) [1]: >19
Structure (SMILES): Cn1cnc(S(=O)(=O)N(CCN(Cc2cncn2C)c2ccc(C#N)nc2)CC2CCN(c3ncccn3)CC2)c1 [19b, N-(2-((2-Cyanopyridin-5-yl)((1-methyl-1H-imidazol-5-yl)methyl)-amino)ethyl)-1-methyl-N-((1-(pyrimidin-2-yl)piperidin-4-yl)methyl)-1H-imidazole-4-sulfonamide]

Structure (SMILES): Cn1cnc(S(=O)(=O)N(CCN(Cc2cncn2C)c2ccc(C#N)cc2)CC2CCCCC2)c1 [1ax]
- GGTase-I/FTase selectivity ([1]; selectivity for hFTase over GGTase-I): about 9 fold
- IC50 ([2]; NIH3T3, read-out: processing IC50 (μM) H-Ras): 0.1 ± 0.07 µM
- IC50 ([2]; NIH3T3, read-out: whole cell H-Ras processing IC50): ~0.09 µM

- fold improvement of in vitro hFTase inhibition relative to 1au ([1]; relative to 1au): approximately 4 fold
Structure (SMILES): Cn1cnc(S(=O)(=O)N(CCN(Cc2cncn2C)c2ccc(C#N)cc2)Cc2ccc(-n3cccc3)cc2)c1 [1av]

- selectivity (ratio of GGTase-I to FTase IC50s) [1]: >139
Structure (SMILES): Cn1cnc(S(=O)(=O)N(CCN(Cc2cncn2C)c2ccc(C#N)cc2)Cc2ccncc2)c1 [1af]

- fold drop in hFTase inhibitory activity relative to 1a ([1]; relative to 1a): > 7 fold
Structure (SMILES): Cn1cnc(S(=O)(=O)N(CCCN(Cc2cncn2C)c2ccc(C#N)cc2)Cc2ccccc2)c1 [20a]

- fold recovery of hFTase activity relative to 1ay ([1]; relative to 1ay): more than 7 fold
Structure (SMILES): Cn1cnc(S(=O)(=O)N(CCN(Cc2cncn2C)c2ccc(C#N)cc2)CC2CCN(c3ncccn3)CC2)c1 [1az]

- selectivity (ratio of GGTase-I to FTase IC50s) [1]: >18
Structure (SMILES): Cn1cnc(S(=O)(=O)N(CCN(Cc2cncn2C)c2ccc(C#N)cc2Cl)CC2CCN(c3ncccn3)CC2)c1 [19a, [N-{2-[(2-Chloro-4-cyanophenyl)-(3-methyl-3H-imidazol-4-ylmethyl)-amino]-ethyl}, N-{N-(2-Pyrimidinyl)-piperidin-4-ylmethyl}] 1-Methyl-1H-imidazole-4-sulfonamide]

- selectivity (ratio of GGTase-I to FTase IC50s) [1]: >1.9
Structure (SMILES): Cc1c(CN(CCN(Cc2cncn2C)c2ccc(C#N)cc2)S(=O)(=O)c2cn(C)cn2)cnn1C [1an, [N-(1,3,5-Trimethyl-1H-pyrazol-4-ylmethyl), N-{2-[(4-Cyanophenyl)-(3-methyl-3H-imidazol-4-ylmethyl)-amino]-ethyl}] 1-Methyl-1H-imidazole-4-sulfonamide]

- times as potent against hFTase as isomeric 1ak ([1]; relative to 1ak): more than 34 times
Structure (SMILES): Cn1cnc(S(=O)(=O)N(CCN(Cc2cncn2C)c2ccc(C#N)cc2)Cc2ccsc2)c1 [1ai, [N-(Thiophen-3-ylmethyl), N-{2-[(4-Cyanophenyl)-(3-methyl-3H-imidazol-4-ylmethyl)-amino]-ethyl}] 1-Methyl-1H-imidazole-4-sulfonamide]

- fold improvement in hFTase inhibitory activity relative to 1az [1]: 2 fold
Structure (SMILES): Cn1cnc(S(=O)(=O)N(CCN(Cc2cncn2C)c2ccc(C#N)c(F)c2)CC2CCN(c3ncccn3)CC2)c1 [19e, [N-{2-[(3-Fluoro-4-cyanophenyl)-(3-methyl-3H-imidazol-4-ylmethyl)-amino]-ethyl}, N-{N-(2-Pyrimidinyl)-piperidin-4-ylmethyl}] 1-Methyl-1H-imidazole-4-sulfonamide]

- fold improvement in hFTase inhibitory activity relative to 1az [1]: approximately 8 fold
Structure (SMILES): Cn1cnc(S(=O)(=O)N(CCN(Cc2cncn2C)c2ccc(C#N)cc2F)CC2CCN(c3ncccn3)CC2)c1 [19f, [N-{2-[(2-Fluoro-4-cyanophenyl)-(3-methyl-3H-imidazol-4-ylmethyl)-amino]-ethyl}, N-{N-(2-Pyrimidinyl)-piperidin-4-ylmethyl}] 1-Methyl-1H-imidazole-4-sulfonamide]

- fold drop in hFTase inhibition relative to 1ax ([1]; relative to 1ax): > 60 fold
Structure (SMILES): Cn1cnc(S(=O)(=O)N(CCN(Cc2cncn2C)c2ccc(C#N)cc2)CC2CCN(C(=O)OC(C)(C)C)CC2)c1 [1ay]
